Test results: patent publication US4738970A, “Benzimidazolyl-thio-tetrahydroquinolines and anti-peptic ulcer compositions containing the same” (Otsuka Pharmaceutical Co., Ltd., priority 1984, dated 1988)

Key:
[1] = test system: secretion of hydrochloric acid in the stomach; test: Inhibitory Effect Test for the Secretion of Hydrochloric Acid in the Stomach; assay type: in vivo, Wistar strain male rats; details: Rattus norvegicus; Wistar male rats, pylorus ligated, histamine dihydrochloride 1 mg/kg/hour stimulated; injected into the duodenum; probit analysis; read-out: ED50 (inhibition of the secretion of hydrochloric acid)
Method: Wistar strain male rats were used as test animals. The test animals were abstained from food for 24 hours, then the pyloric sphincter of the test animal was ligated under anesthetized condition with urethane (1.5 g/kg), and a perfusion cannula for the stomach was inserted into the stomach.
The stomach was perfused with physiological saline through a peroral catheter, and the quantity of gastric juice secreted was measured by determining the pH and by titrating the total acidity of the perfusate.
The secretion of gastric juice was accelerated by injecting histamine dihydrochloride as the secretion stimulant in the rate of 1 mg/kg/hour continuously through the femoral vein, then the effect of each of the compounds was tested. Each of the test compounds was dissolved in dimethylformamide, and the predetermined dosage (maximum: 30 mg/kg) of each of the test compounds was administered by injecting the test compound solution into the duodenum.
Inhibition rate (%) of the secretion of hydrochloric acid was calculated by taking the value of the hydrochloric acid secreted before the administration of each of the test compounds as the reference. ED50 value of each of the test compounds was calculated from the inhibitory rate (%) of each of the test compounds and treated mathematically by probit (probability unit) analysis.

[2] = target: T1, H^+ -K^+ -ATPase (Sus scrofa, UniProt P19156); test: Inhibitory Effect Test for the Activity of H^+ -K^+ -ATPase; assay type: biochemical; details: H+-K+-ATPase from the stomach of swine; preincubation pH 6.1, room temperature 30 min; reaction pH 7.4, 37° C. 30 min; read-out: IC50 (50% inhibition dosage)
T1 construct: which was prepared from the stomach of swine; from tissue; host or cells: stomach of swine
Method: H^+ -K^+ -ATPase (hydrogen-potassium-activated adenosine triphosphatase) (protein content: 10 mcg) which was prepared from the stomach of swine was added to PIPES-tris[buffer PIPES-tris(hydroxymethyl)-2-amino-1,3-propanediol buffer (pH=6.1) containing 2 mM of piperazine-N,N'-bis(2-ethanesulfonic acid)], then the resulting mixture was let allowed to stand at room temperature.
Each of the test compounds was dissolved in dimethylformamide, and the dimethylformamide solution was added to the above-mentioned H^+ -K^+ -ATPase buffer solution so as to adjust the final concentration of the test compound to 1.0%. Each of thus prepared mixture was reacted at room temperature for 30 minutes.
Next, the above-mentioned reaction mixture was divided into two portions, and to the one portion thereof was added 1 ml of 75 mM PIPES-tris buffer solution (pH=7.4) (containing 4 mM of MgCl2, 4 mM of Na2 ATP and 20 mM of KCl), on the other hand, to another portion of the reaction mixture was added 1 ml of 75 mM PIPES-tris buffer solution (pH=7.4) (containing 4 mM of MgCl2 and 4 mM of Na2 ATP), respectively. Each of these two series of sample solutions was separately reacted at 37° C. for 30 minutes. Then to each of these reaction mixtures was added 0.3 ml of 40% trichloroacetic acid to terminate the reaction, and was subjected to centrifugal separation at 3,000 rpm for 10 minutes to obtain the supernatent. Next, the inorganic phosphoric acid formed in the reaction mixture was determined by a method according to the article by C. H. Fiske and Y. Subbarow: J. Biol. Chem., Vol. 66, pages 375-400, (1925). The difference of the value obtained by substracting the quantity of inorganic phosphoric acid determined by using PIPES-tris buffer solution without containing 20 mM of KCl from the quantity of inorganic phosphoric acid determined by using PIPES-tris buffer solution containing 20 mM of KCl, was converted into as activity value of enzyme with respect to the unit protein and unit time.
Inhibitory rate (%) of each of the test compounds was obtained from the activity value of the enzyme at the respective dosages in the test groups and those of obtained from the control group, then IC50 (50% inhibition dosage of each of the test compounds) was calculated from the inhibitory rate (%).

T1 sequence (P19156 2-1034 limits assumed): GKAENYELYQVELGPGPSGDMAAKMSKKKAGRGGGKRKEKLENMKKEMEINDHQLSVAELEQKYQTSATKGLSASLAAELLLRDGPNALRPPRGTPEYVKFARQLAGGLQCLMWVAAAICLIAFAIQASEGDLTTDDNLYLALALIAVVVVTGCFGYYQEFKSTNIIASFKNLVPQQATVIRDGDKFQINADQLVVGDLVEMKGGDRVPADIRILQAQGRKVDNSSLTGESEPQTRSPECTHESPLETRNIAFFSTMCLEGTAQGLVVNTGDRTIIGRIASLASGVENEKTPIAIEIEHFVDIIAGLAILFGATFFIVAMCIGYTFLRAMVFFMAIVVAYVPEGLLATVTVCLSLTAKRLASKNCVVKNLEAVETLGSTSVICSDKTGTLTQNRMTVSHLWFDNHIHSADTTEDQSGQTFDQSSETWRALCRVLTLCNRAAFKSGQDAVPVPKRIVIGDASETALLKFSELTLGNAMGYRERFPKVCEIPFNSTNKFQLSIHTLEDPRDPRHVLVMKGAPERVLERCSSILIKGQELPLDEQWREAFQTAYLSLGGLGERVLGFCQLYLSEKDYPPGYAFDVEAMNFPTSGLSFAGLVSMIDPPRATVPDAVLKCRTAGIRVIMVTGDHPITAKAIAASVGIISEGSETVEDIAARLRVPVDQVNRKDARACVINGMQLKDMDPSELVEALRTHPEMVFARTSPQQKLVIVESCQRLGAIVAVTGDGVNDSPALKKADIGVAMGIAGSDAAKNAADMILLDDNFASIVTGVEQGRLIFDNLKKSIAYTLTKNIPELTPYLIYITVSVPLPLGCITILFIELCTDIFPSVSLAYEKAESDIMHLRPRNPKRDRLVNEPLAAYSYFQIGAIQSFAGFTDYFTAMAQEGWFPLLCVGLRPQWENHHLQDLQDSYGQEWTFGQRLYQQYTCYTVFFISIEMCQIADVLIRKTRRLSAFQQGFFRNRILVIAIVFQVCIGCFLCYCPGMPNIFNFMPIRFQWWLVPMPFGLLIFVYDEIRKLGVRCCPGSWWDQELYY
T1 sequence (P18434 whole entry partner): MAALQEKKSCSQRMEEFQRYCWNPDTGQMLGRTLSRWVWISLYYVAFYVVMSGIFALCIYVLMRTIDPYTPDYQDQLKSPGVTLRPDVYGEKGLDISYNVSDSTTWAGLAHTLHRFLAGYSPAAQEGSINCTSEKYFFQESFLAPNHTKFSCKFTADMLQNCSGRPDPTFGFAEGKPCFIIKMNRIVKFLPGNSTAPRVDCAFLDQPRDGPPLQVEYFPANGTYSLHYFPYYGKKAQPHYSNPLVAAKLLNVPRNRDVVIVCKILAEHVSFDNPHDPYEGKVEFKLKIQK

[O-][S+](c1nc2ccccc2[nH]1)C1CCCc2cccnc21 (centres unmarked) [Test compound 12, 8-(2-Benzimidazolyl)sulfinyl-5,6,7,8-tetrahydroquinoline]
ED50 [1]: 8.5 mg/kg | IC50 [2]: 1200 nM

[O-][S+](c1nc2ccc(Cl)cc2[nH]1)C1CCCc2cccnc21 (centres unmarked) [Test compound 20, 8-(5-Chloro-2-benzimidazolyl)sulfinyl-5,6,7,8-tetrahydroquinoline]
ED50 [1]: 4.4 mg/kg | IC50 [2]: 1000 nM

Cc1ccc2nc([S+]([O-])C3CCCc4cccnc43)[nH]c2c1 (centres unmarked) [Test compound 17, 8-(5-Methyl-2-benzimidazolyl)sulfinyl-5,6,7,8-tetrahydroquinoline]
ED50 [1]: 17.2 mg/kg | IC50 [2]: 1900 nM

C#CCOc1c(C)cnc2c1CCCC2[S+]([O-])c1nc2cc(C)c(C)cc2[nH]1 (centres unmarked) [Test compound 6, 8-(5,6-Dimethyl-2-benzimidazolyl)sulfinyl-3-methyl-4-propargyloxy-5,6,7,8-tetrahydroquinoline]
IC50 [2]: 460 nM

COc1c(C)cnc2c1CCCC2[S+]([O-])c1nc2ccccc2[nH]1 (centres unmarked) [Test compound 35, 3-Methyl-4-methoxy-8-(2-benzimidazolyl)-sulfinyl-5,6,7,8-tetrahydroquinoline]
IC50 [2]: 250 nM

C#CCOc1c(C)cnc2c1CCCC2[S+]([O-])c1nc2ccc(F)cc2[nH]1 (centres unmarked) [Test compound 3, 8-(5-Fluoro-2-benzimidazolyl)sulfinyl-3-methyl-4-propargyloxy-5,6,7,8-tetrahydroquinoline]
IC50 [2]: 1100 nM

COc1ccc2nc([S+]([O-])C3CCCc4cccnc43)[nH]c2c1 (centres unmarked) [Test compound 23, 8-(5-Methoxy-2-benzimidazolyl)sulfinyl-5,6,7,8-tetrahydroquinoline]
IC50 [2]: 1900 nM

Cc1cnc2c(c1)CCCC2[S+]([O-])c1nc2ccc(F)cc2[nH]1 (centres unmarked) [Test compound 40, 3-Methyl-8-(5-fluoro-2-benzimidazolyl)-sulfinyl-5,6,7,8-tetrahydroquinoline]
IC50 [2]: 1900 nM

[O-][S+](c1nc2ccc(F)cc2[nH]1)C1CCCc2cccnc21 (centres unmarked) [Test compound 32, 8-(5-Fluoro-2-benzimidazolyl)sulfinyl-5,6,7,8-tetrahydroquinoline]
ED50 [1]: 5.2 mg/kg | IC50 [2]: 1700 nM

CCOc1cc2[nH]c([S+]([O-])C3CCCc4cccnc43)nc2cc1F (centres unmarked) [Test compound 37, 8-(5-Ethoxy-6-fluoro-2-benzimidazolyl)-sulfinyl-5,6,7,8-tetrahydroquinoline]
IC50 [2]: 3400 nM

COc1ccc2nc([S+]([O-])C3CCCc4cc(C)cnc43)[nH]c2c1 (centres unmarked) [Test compound 26, 3-Methyl-8-(5-methoxy-2-benzimidazolyl)-sulfinyl-5,6,7,8-tetrahydroquinoline]
ED50 [1]: 15.7 mg/kg | IC50 [2]: 3700 nM

CCOc1cc2[nH]c([S+]([O-])C3CCCc4c3ncc(C)c4OC)nc2cc1F (centres unmarked) [Test compound 42, 3-Methyl-4-methoxy-8-(5-ethoxy-6-fluoro-2-benzimidazolyl)sulfinyl-5,6,7,8-tetrahydroquinoline]
IC50 [2]: 240 nM

COc1cc2nc([S+]([O-])C3CCCc4c3ncc(C)c4OC)[nH]c2cc1F (centres unmarked) [Test compound 48, 3-Methyl-4-methoxy-8-(5-fluoro-6-methoxy-2-benzimidazolyl)sulfinyl-5,6,7,8-tetrahydroquinoline]
IC50 [2]: 310 nM

C=CCOc1c(C)cnc2c1CCCC2[S+]([O-])c1nc2cc(Cl)c(Cl)cc2[nH]1 (centres unmarked) [Test compound 5, 4-Allyloxy-8-(5,6-dichloro-2-benzimidazolyl)-sulfinyl-3-methyl-5,6,7,8-tetrahydroquinoline]
IC50 [2]: 310 nM

C#CCOc1c(C)cnc2c1CCCC2[S+]([O-])c1nc2cc(Cl)c(Cl)cc2[nH]1 (centres unmarked) [Test compound 8, 8-(5,6-Dichloro-2-benzimidazolyl)sulfinyl-3-methyl-4-propargyloxy-5,6,7,8-tetrahydroquinoline]
IC50 [2]: 290 nM

COc1ccc2nc([S+]([O-])C3CCCc4c3ncc(C)c4OC)[nH]c2c1 (centres unmarked) [Test compound 49, 3-Methyl-4-methoxy-8-(5-methoxy-2-benzimidazolyl)sulfinyl-5,6,7,8-tetrahydroquinoline]
IC50 [2]: 280 nM

COc1ccc2nc([S+]([O-])C3CCCc4ccc(C)nc43)[nH]c2c1 (centres unmarked) [Test compound 14, 2-Methyl-8-(5-methoxy-2-benzimidazolyl)-sulfinyl-5,6,7,8-tetrahydroquinoline]
IC50 [2]: 1500 nM

C=CCOc1c(C)cnc2c1CCCC2[S+]([O-])c1nc2cc(F)c(F)cc2[nH]1 (centres unmarked) [Test compound 2, 4-Allyloxy-8-(5,6-difluoro-2-benzimidazolyl)-sulfinyl-3-methyl-5,6,7,8-tetrahydroquinoline]
IC50 [2]: 1800 nM
